Experimental findings from US11679108B2, “Aromatic heterocyclic compound, and pharmaceutical composition and use thereof” (GUANGZHOU HENOVCOM BIOSCIENCE CO., LTD., priority 2018, dated 2023) are described below.

pIC50: −log10 of the molar value.

This assay addresses T1, ATX in human plasma (Homo sapiens, UniProt Q13822).
T1 construct: blank plasma was derived from at least 6 individual people; from tissue; host or cells: human plasma (pooled from at least 6 individuals)
Nature of the assay: Analysis in vitro: detection of LPA in human plasma for screening activity (LPA 18:2 by LC/MS/MS). The assay is classed as biochemical. The following applies: incubated 2 hours at 37° C., LPA 18:2 detected by LC/MS/MS. The text has this: Analysis In Vitro: Detection of LPA in Human Plasma for Screening Activity
Principle: LPC in plasma being used as a substrate, the produced LPA 18:2 (LPA 17:0 as an internal standard) is detected by LC/MS/MS quantitative analysis. At different concentrations of the compounds to be tested, the percentage of residual activity is obtained by the ratio of the production of LPA18:2 to that in the absence of the compounds to be tested, thereby calculating IC50 values.
Experiment procedures: blank plasma was derived from at least 6 individual people. The compounds to be tested were diluted from stock solution in 3-fold dilution gradient, to produce 8 concentrations of working solution (with zero) in series. 10 μL of the melting blank plasma samples were taken and iced methanol solution containing internal standard (LPA 17:0) was added to it, so that the mixture directedly performed protein precipitation, which served as a system control sample. 2 μL of the working solution in different concentration was taken and 198 μL of blank human plasma was added, which was incubated with a concentration of 0 to 10 μM. The samples were placed at an incubater containing 5% CO2 at 37° C., and incubated for 2 hours. When the incubation was completed, 10 μL of plasma sample was taken and appropriate volume of iced methanol solution containing internal standard (LPA 17:0) was added into it, so that the mixture directedly performed protein precipitation. The precipitation was centrifuged to take supernatant. LPA 18:2 was detected by LC/MS/MS and IC50 values were analyzed and calculated by software, seeing Table 2.

One may read the pIC50 as −log10 of the IC50, conventionally taken in molar units. Low values mean a large IC50, high ones a small IC50. Compound `CCc1nc2sc(N3CC4(CCN(CC(=O)N5CC(C#N)C5)C4)C3)nn2c1N(C)c1nc(-c2ccc(F)cc2)c(C#N)s1` [Example 53, 2-{[6-ethyl-2-(6-(2-(3-cyanoazetidin-1-yl)-2-oxoethyl)-2,6-diazaspiro[3.4]octane-2-yl)imidazo[2,1-b][1,3,4]thiadiazol-5-yl](methyl)amino}-4-(4-fluorophenyl)thiazole-5-carbonitrile] gave a pIC50 of 7.00 to 11.00.

Consider `CCc1nc2sc(N3CCC4(CN(CC(=O)N5CC(O)C5)C4)C3)nn2c1N(C)c1nc(-c2ccc(F)cc2)c(C#N)s1` [Example 54, 2-{[6-ethyl-2-(2-(2-(3-hydroxyazetidin-1-yl)-2-oxoethyl)-2,6-diazaspiro[3.4]octane-6-yl)imidazo[2,1-b][1,3,4]thiadiazol-5-yl](methyl)amino}-4-(4-fluorophenyl)thiazole-5-carbonitrile], for which the pIC50 was 6.30 to 7.00. The result for `CCc1nc2sc(N3CCC4(CN(CC(=O)N5CC(C#N)C5)C4)C3)nn2c1N(C)c1nc(-c2ccc(F)cc2)c(C#N)s1` [Example 55, 2-{[6-ethyl-2-(2-(2-(3-cyanoazetidin-1-yl)-2-oxoethyl)-2,6-diazaspiro[3.4]octane-6-yl)imidazo[2,1-b][1,3,4]thiadiazol-5-yl](methyl)amino}-4-(4-fluorophenyl)thiazole-5-carbonitrile] reads 6.30 to 7.00. The result for `CCc1nc2sc(N3CC4CN(CC(=O)N5CC(O)C5)CC4C3)nn2c1N(C)c1nc(-c2ccc(F)cc2)c(C#N)s1` (stereo not drawn) [Example 56, 2-{[6-ethyl-2-(5-(2-(3-hydroxyazetidin-1-yl)-2-oxoethyl)hexahydropyrrolo[3,4-c]pyrrol-2(1H)-yl)imidazo[2,1-b][1,3,4]thiadiazol-5-yl](methyl)amino}-4-(4-fluorophenyl)thiazole-5-carbonitrile] reads 7.00 to 11.00; that for `CCc1nc2sc(N3CC4CN(CC(=O)N5CC(C#N)C5)CC4C3)nn2c1N(C)c1nc(-c2ccc(F)cc2)c(C#N)s1` (stereo not drawn) [Example 57, 2-{[6-ethyl-2-(5-(2-(3-cyanoazetidin-1-yl)-2-oxoethyl)hexahydropyrrolo[3,4-c]pyrrol-2(1H)-yl)imidazo[2,1-b][1,3,4]thiadiazol-5-yl](methyl)amino}-4-(4-fluorophenyl)thiazole-5-carbonitrile], 6.30 to 7.00; that for `CCc1nc2sc(N3C[C@@H]4C[C@H]3CN4CC(=O)N3CC(O)C3)nn2c1N(C)c1nc(-c2ccc(F)cc2)c(C#N)s1` [Example 58, 2-{[6-ethyl-2-((1S,4S)-5-(2-(3-hydroxyazetidin-1-yl)-2-oxoethyl)-2,5-diazabicyclo[2.2.1]heptan-2-yl)imidazo[2,1-b][1,3,4]thiadiazol-5-yl](methyl)amino}-4-(4-fluorophenyl)thiazole-5-carbonitrile], 7.00 to 11.00. The result for `CCc1nc2sc(N3C[C@@H]4C[C@H]3CN4CC(=O)N3CC(C#N)C3)nn2c1N(C)c1nc(-c2ccc(F)cc2)c(C#N)s1` [Example 59, 2-{[6-ethyl-2-((1S,4S)-5-(2-(3-cyanoazetidin-1-yl)-2-oxoethyl)-2,5-diazabicyclo[2.2.1]heptan-2-yl)imidazo[2,1-b][1,3,4]thiadiazol-5-yl](methyl)amino}-4-(4-fluorophenyl)thiazole-5-carbonitrile] reads 6.30 to 7.00. `CCc1nc2sc(N3CC4CC3CO4)nn2c1N(C)c1nc(-c2ccc(F)cc2)c(C#N)s1` (stereo not drawn) [Example 60, 2-{[2-(2-oxa-5-azabicyclo[2.2.1]heptan-5-yl)-6-ethylimidazo[2,1-b][1,3,4]thiadiazol-5-yl](methyl)amino}-4-(4-fluorophenyl)thiazole-5-carbonitrile]: the pIC50 was no more than 6.00. Take `CCc1nc2sc(N3CC4CC(C3)N4CC(=O)N3CC(O)C3)nn2c1N(C)c1nc(-c2ccc(F)cc2)c(C#N)s1` [Example 61, 2-{[6-ethyl-2-(6-(2-(3-hydroxyazetidin-1-yl)-2-oxoethyl)-3,6-diazabicyclo[3.1.1]heptan-3-yl)imidazo[2,1-b][1,3,4]thiadiazol-5-yl](methyl)amino}-4-(4-fluorophenyl)thiazole-5-carbonitrile]: the pIC50 was 6.30 to 7.00.
